The structures appear in SMILES notation. pIC50: −log10 of the molar value.

human MDM2 protein (amino acids 2-188), sequence (Q00987 2-188): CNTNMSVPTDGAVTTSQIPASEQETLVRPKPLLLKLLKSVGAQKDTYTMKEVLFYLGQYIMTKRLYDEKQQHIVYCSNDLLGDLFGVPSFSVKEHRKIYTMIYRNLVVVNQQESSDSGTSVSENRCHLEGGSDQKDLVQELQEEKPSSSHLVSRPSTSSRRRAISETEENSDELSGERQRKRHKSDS

The test has as its target human MDM2 protein (amino acids 2-188) (Homo sapiens (Human), UniProt Q00987). The experiment in a line: TR-FRET assay, p53-MDM2 Assay 2 (modified). As to conditions: TR-FRET; 0.1 nM MDM2, 0.1 nM Europium labeled streptavidin, Tecan genios Pro reader; read-out: IC50 p53-MDM2 Assay 2. The class given is binding. Summed up:
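Biotinylated human MDM2 (aa 2–188, 1.25 nM) was preincubated 15 min at room temperature with 0.625 nM Eu-streptavidin, then 10 nM Cy5-p53 peptide (aa 18–26) added for 15 min. TR-FRET ratio 665/620 nm (excitation 340 nm) was read; IC50 came from curve fitting.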
(In general: In TR-FRET formats the signal depends on donor and acceptor labels being close together.)
Consider `COc1ncc(-c2c(C#N)c3c(n2C(C)C)C(c2ccc(Cl)cc2)N(c2cc(Cl)c(=O)n(C)c2)C3=O)c(OC)n1` (stereo not shown) [Example 120, 5-(5-Chloro-1-methyl-6-oxo-1,6-dihydro-pyridin-3-yl)-6-(4-chloro-phenyl)-2-(2,4-dimethoxy-pyrimidin-5-yl)-1-isopropyl-4-oxo-1,4,5,6-tetrahydro-pyrrolo[3,4-b]pyrrole-3-carbonitrile], for which the pIC50 (commonly the negative decadic logarithm of the IC50, by convention in mol/L) is 9.78.
For `COc1nc(N(C)C)ncc1-c1cc2c(n1C(C)C)C(c1ccc(Cl)cc1)N(C1CCOCC1)C2=O` (stereo not shown) [Example 79, 6-(4-Chloro-phenyl)-2-(2-dimethylamino-4-methoxy-pyrimidin-5-yl)-1-isopropyl-5-(tetrahydro-pyran-4-yl)-5,6-dihydro-1H-pyrrolo[3,4-b]pyrrol-4-one] the value was 9.37; for `CNC(=O)c1ccc(OC)c(-c2cc3c(n2C(C)C)[C@@H](c2ccc(Cl)cc2C)N(c2cc(Cl)ccc2C)C3=O)c1` [Example 33, 3-[(R)-5-(5-Chloro-2-methyl-phenyl)-6-(4-chloro-2-methyl-phenyl)-1-isopropyl-4-oxo-1,4,5,6-tetrahydro-pyrrolo[3,4-b]pyrrol-2-yl]-4-methoxy-N-methyl-benzamide], 7.35; for `COc1nc(N)ncc1-c1cc2c(n1C(C)C)[C@@H](c1ccc(C#N)cc1)N(c1ccc(F)c(Cl)c1)C2=O` [Example 172, 4-[(R)-2-(2-Amino-4-methoxy-pyrimidin-5-yl)-5-(3-chloro-4-fluoro-phenyl)-1-isopropyl-4-oxo-1,4,5,6-tetrahydro-pyrrolo[3,4-b]pyrrol-6-yl]-benzonitrile], 6.94.
For the compound `COc1nc(N(C)C)ncc1-c1cc2c(n1C(C)C)C(c1ccc(C#N)cc1)N(c1cc(C)nn1C)C2=O` (stereo not shown) [Example 180, 4-[2-(2-Dimethylamino-4-methoxy-pyrimidin-5-yl)-5-(2,5-dimethyl-2H-pyrazol-3-yl)-1-isopropyl-4-oxo-1,4,5,6-tetrahydro-pyrrolo[3,4-b]pyrrol-6-yl]-benzonitrile], the pIC50 was 9.19.
As for `COc1ccccc1-c1cc2c(n1C(C)C)C(c1ccc(Cl)cc1)N(c1cc(Cl)c(=O)n(C)c1)C2=O` (stereo not shown) [Example 46, 5-(5-Chloro-1-methyl-6-oxo-1,6-dihydro-pyridin-3-yl)-6-(4-chloro-phenyl)-1-isopropyl-2-(2-methoxy-phenyl)-5,6-dihydro-1H-pyrrolo[3,4-b]pyrrol-4-one], the figure is 9.69.
For `COc1ncc(-c2cc3c(n2C(C)C)[C@@H](c2ccc(Cl)cc2)N(c2cc(Cl)ccc2C)C3=O)c(OC)n1` [Example 24, (R)-5-(5-Chloro-2-methyl-phenyl)-6-(4-chloro-phenyl)-2-(2,4-dimethoxy-pyrimidin-5-yl)-1-isopropyl-5,6-dihydro-1H-pyrrolo[3,4-b]pyrrol-4-one] the value was 7.53; for `COc1nc(N(C)C)ncc1-c1cc2c(n1C(C)C)C(c1ccc(C#N)c(F)c1)N(c1cc(Cl)c(=O)n(C)c1)C2=O` (stereo not shown) [Example 194, 4-[5-(5-Chloro-1-methyl-6-oxo-1,6-dihydro-pyridin-3-yl)-2-(2-dimethylamino-4-methoxy-pyrimidin-5-yl)-1-isopropyl-4-oxo-1,4,5,6-tetrahydro-pyrrolo[3,4-b]pyrrol-6-yl]-2-fluoro-benzonitrile], 9.71; for `COc1nc(N(C)C)ncc1-c1cc2c(n1C(C)C)C(c1ccc(Cl)cc1)N(c1cc(Cl)ccc1C#N)C2=O` (stereo not shown) [Example 100, 4-Chloro-2-[6-(4-chloro-phenyl)-2-(2-dimethylamino-4-methoxy-pyrimidin-5-yl)-1-isopropyl-4-oxo-4,6-dihydro-1H-pyrrolo[3,4-b]pyrrol-5-yl]-benzonitrile], 9.50.
As for `COc1ncc(-c2cc3c(n2C(C)C)C(c2ccc(Cl)cc2)N([C@H]2CC[C@H](OC)CC2)C3=O)c(OC)n1` (stereo partly drawn) [Example 143, 6-(4-Chloro-phenyl)-2-(2,4-dimethoxy-pyrimidin-5-yl)-1-isopropyl-5-(trans-4-methoxy-cyclohexyl)-5,6-dihydro-1H-pyrrolo[3,4-b]pyrrol-4-one], the figure is 8.77.

The record behind these values is US9365576B2, “Pyrrolopyrrolidinone compounds” (Novartis AG, priority 2012, dated 2016).
